Source: patent US10670605B2, “Cysteine reactive probes and uses thereof” (The Scripps Research Institute, priority 2015, dated 2020)

Key:
Test in all cases: Competitive isoTOP-ABPP in situ (fragment-treated cells)
Assay type in all cases: cell-based
Settings in all cases: 200 μM, insitu
[1] = molecular target: T1, cysteines in MDA-MB-231 and Ramos cells (Homo sapiens, UniProt Q96T76)
T1 sequence (Q96T76 1-1030): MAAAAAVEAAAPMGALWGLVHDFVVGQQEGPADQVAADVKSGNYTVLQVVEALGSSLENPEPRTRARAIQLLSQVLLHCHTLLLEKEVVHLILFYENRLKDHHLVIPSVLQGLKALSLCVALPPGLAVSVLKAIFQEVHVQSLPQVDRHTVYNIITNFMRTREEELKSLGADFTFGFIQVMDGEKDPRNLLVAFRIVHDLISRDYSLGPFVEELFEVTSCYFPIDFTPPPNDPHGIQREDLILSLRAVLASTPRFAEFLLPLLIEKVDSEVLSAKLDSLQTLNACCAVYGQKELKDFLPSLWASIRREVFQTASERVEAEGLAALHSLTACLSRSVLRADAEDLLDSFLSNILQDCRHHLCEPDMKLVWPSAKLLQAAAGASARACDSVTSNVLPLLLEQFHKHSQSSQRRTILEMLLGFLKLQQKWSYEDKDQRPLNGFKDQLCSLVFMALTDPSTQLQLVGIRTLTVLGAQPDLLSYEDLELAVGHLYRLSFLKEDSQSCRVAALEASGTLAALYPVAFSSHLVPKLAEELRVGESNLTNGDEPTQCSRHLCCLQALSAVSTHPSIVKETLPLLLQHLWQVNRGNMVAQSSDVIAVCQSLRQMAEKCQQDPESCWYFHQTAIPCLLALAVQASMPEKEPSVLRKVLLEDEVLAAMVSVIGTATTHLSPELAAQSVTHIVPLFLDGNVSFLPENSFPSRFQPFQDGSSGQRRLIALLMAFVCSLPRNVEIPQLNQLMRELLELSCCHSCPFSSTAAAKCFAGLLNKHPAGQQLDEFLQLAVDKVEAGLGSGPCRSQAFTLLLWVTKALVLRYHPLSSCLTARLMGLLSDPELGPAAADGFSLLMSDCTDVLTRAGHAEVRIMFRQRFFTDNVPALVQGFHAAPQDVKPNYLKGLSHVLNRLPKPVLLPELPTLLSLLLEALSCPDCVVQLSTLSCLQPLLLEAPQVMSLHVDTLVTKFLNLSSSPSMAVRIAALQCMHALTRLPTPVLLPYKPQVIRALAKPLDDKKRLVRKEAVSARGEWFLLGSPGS

[2] = molecular target: T2, cysteines in MDA-MB-231 and Ramos cells (Homo sapiens, UniProt Q29RF7)
T2 sequence (Q29RF7 1-1337): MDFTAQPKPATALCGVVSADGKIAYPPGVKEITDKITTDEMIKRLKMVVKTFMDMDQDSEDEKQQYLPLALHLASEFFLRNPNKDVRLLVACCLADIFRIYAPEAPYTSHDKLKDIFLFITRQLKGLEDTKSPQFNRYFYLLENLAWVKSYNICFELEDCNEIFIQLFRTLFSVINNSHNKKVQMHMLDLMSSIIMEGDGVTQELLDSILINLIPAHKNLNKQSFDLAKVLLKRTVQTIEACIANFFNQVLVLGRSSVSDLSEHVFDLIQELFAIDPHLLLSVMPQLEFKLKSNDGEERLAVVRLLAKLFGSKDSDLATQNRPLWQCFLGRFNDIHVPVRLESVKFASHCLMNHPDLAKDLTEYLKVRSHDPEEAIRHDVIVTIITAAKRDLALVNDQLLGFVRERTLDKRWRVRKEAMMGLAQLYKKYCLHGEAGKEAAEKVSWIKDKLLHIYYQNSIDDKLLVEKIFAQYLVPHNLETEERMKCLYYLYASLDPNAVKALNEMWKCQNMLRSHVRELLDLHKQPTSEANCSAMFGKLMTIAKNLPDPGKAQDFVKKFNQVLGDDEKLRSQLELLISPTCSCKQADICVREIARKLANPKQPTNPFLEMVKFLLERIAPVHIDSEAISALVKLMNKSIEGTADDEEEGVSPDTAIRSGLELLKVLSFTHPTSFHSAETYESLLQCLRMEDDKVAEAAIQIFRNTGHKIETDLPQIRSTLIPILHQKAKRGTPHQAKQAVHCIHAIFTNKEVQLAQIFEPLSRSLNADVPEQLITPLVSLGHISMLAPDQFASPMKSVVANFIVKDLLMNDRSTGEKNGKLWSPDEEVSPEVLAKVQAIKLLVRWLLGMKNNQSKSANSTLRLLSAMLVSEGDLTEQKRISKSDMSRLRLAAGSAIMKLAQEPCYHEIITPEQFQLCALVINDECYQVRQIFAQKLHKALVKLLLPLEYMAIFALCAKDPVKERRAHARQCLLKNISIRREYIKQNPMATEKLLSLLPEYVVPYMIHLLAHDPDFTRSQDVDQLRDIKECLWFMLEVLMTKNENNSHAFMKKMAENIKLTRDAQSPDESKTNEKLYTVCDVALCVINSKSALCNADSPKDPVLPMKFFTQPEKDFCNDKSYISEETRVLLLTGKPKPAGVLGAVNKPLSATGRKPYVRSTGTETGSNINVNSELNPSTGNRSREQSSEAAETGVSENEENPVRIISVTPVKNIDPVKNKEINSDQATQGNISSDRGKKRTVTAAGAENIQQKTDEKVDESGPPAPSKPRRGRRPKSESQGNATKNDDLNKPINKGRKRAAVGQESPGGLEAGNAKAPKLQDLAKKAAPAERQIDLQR

[3] = molecular target: T3, cysteines in MDA-MB-231 and Ramos cells (Homo sapiens, UniProt Q96AB3)
T3 sequence (Q96AB3 1-205): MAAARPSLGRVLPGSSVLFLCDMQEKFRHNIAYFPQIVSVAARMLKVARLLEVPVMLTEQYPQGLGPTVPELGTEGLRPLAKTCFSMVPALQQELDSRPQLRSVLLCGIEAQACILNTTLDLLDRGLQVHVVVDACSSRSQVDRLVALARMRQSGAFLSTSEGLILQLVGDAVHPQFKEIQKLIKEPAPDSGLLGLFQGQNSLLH

[4] = molecular target: T4, cysteines in MDA-MB-231 and Ramos cells (Homo sapiens, UniProt Q9Y3A3)
T4 sequence (Q9Y3A3 1-225): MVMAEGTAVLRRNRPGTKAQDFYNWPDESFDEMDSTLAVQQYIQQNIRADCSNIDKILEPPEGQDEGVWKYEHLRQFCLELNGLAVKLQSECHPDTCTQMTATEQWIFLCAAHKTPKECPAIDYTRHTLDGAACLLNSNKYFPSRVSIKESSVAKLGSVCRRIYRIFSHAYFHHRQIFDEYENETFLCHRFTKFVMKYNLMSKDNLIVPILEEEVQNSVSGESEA

| isoTOP-ABPP ratio Q96T76_C848 [1]; 231 | isoTOP-ABPP ratio Q96AB3_C114 [3]; 231 | isoTOP-ABPP ratio Q96T76_C819 [1]; 231 | isoTOP-ABPP ratio Q29RF7_C242 [2]; 231 | isoTOP-ABPP ratio Q9Y3A3_C134 [4]; 231 | Compound | other results |
| --- | --- | --- | --- | --- | --- | --- |
| 0.7 | 4.9 | – | – | – | O=C(CCl)NC12CC3CC(CC(C3)C1)C2 [compound 21] | isoTOP-ABPP ratio, cysteine Q29RF7_C242 [2]; 231: 0.9 |
| 0.5 | 1.0 | 0.5 | 0.9 | – | CC(C)CCOCCNC(=O)CCl [compound 27] | – |
| 0.8 | 0.8 | – | 1.0 | – | COc1ccccc1OCCNC(=O)CCl [compound 28] | – |
| – | – | – | – | – | O=C(CCl)N1CCN(CC(=O)N2CCOCC2)CC1 [compound 29] | isoTOP-ABPP ratio Q9Y3A3_C134 ([4]; ramos): 1.2; isoTOP-ABPP ratio Q96T76_C848 ([1]; ramos): 1.0; isoTOP-ABPP ratio Q96AB3_C114 ([3]; ramos): 1.1 |
| 20.0 | 0.7 | 20.0 | – | 1.0 | C=CC(=O)N(Cc1cccnc1)c1cc(C(F)(F)F)cc(C(F)(F)F)c1 [compound 31] | isoTOP-ABPP ratio Q9Y3A3_C134 ([4]; ramos): 1.8; isoTOP-ABPP ratio Q96T76_C819 ([1]; ramos): 20.0; isoTOP-ABPP ratio Q29RF7_C532 [2]; 231: 5.1; isoTOP-ABPP ratio Q29RF7_C532 ([2]; ramos): 8.1 |
| – | 1.2 | 4.6 | 1.0 | 1.0 | C=CC(=O)Nc1cc(F)c(N2CCN(C(=O)OC(C)(C)C)CC2)c(F)c1 [compound 38] | – |
| 0.7 | 0.7 | 0.6 | – | 0.9 | Cc1ccc(C=C(C#N)C(=O)NCCN2CCOCC2)cc1 [compound 41] | isoTOP-ABPP ratio Q29RF7_C532 [2]; 231: 0.8 |
| 20.0 | 3.1 | 20.0 | – | 2.3 | CC1CCc2ccccc2N1C(=O)CCl (stereo not drawn) [compound 45] | – |
| – | 0.8 | – | 1.8 | – | O=C(CCl)Nc1cccc2ncccc12 [compound 51] | – |
